Measured values as given in PubChem BioAssay (NCI).
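Following 48 hours of exposure in 96-well plates, responses at five concentrations were used to interpolate endpoints linearly. The concentration for full growth arrest is given as TGI.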

Assays:
Assay in all cases: NCI-60 cell line screen, 48 h
[1] = system: 786-0 renal
[2] = system: A498 renal
[3] = system: A549 NSCLC
[4] = system: ACHN renal
[5] = system: CAKI-1 renal
[6] = system: CCRF-CEM leukemia
[7] = system: COLO 205 colon
[8] = system: DLD-1 colon
[9] = system: DMS 273 small cell lung
[10] = system: EKVX NSCLC
[11] = system: HCC-2998 colon
[12] = system: HCT-116 colon
[13] = system: HCT-15 colon
[14] = system: HL-60(TB) leukemia
[15] = system: HOP-18 NSCLC
[16] = system: HOP-62 NSCLC
[17] = system: HOP-92 NSCLC
[18] = system: HT29 colon
[19] = system: IGROV1 ovarian
[20] = system: K-562 leukemia
[21] = system: KM12 colon
[22] = system: KM20L2 colon
[23] = system: LOX IMVI melanoma
[24] = system: LXFL 529 NSCLC
[25] = system: M14 melanoma
[26] = system: M19-MEL melanoma
[27] = system: MALME-3M melanoma
[28] = system: NCI-H226 lung
[29] = system: NCI-H23 lung
[30] = system: NCI-H460 lung
[31] = system: NCI-H522 lung
[32] = system: OVCAR-3 ovarian
[33] = system: OVCAR-4 ovarian
[34] = system: OVCAR-5 ovarian
[35] = system: OVCAR-8 ovarian
[36] = system: RPMI-8226 leukemia
[37] = system: RXF 393 renal
[38] = system: SF-268 CNS
[39] = system: SF-295 CNS
[40] = system: SF-539 CNS
[41] = system: SK-MEL-2 melanoma
[42] = system: SK-MEL-28 melanoma
[43] = system: SK-MEL-5 melanoma
[44] = system: SK-OV-3 ovarian
[45] = system: SN12C renal
[46] = system: SNB-19 CNS
[47] = system: SNB-75 CNS
[48] = system: SNB-78 CNS
[49] = system: SR leukemia
[50] = system: SW-620 colon
[51] = system: TK-10 renal
[52] = system: U251 CNS
[53] = system: UACC-257 melanoma
[54] = system: UACC-62 melanoma
[55] = system: UO-31 renal
[56] = system: DMS 114 small cell lung
[57] = system: XF 498 CNS

## CC(C)C1=Cc2ccc3c(c2C(=O)C1=O)CCCC3(C)C
[1]
  TGI: 10.5 µM
[2]
  TGI: 34 µM
[3]
  TGI: 34.8 µM
[4]
  TGI: 13 µM
[5]
  TGI: 6.69 µM
[6]
  TGI: > 100 µM
[7]
  TGI: 14.5 µM
[8]
  TGI: 5.08 µM
[9]
  TGI: 14.8 µM
[10]
  TGI: 28.6 µM
[11]
  TGI: 32.7 µM
[12]
  TGI: 3.33 µM
[13]
  TGI: 4.42 µM
[14]
  TGI: > 100 µM
[15]
  TGI: 6.27 µM
[16]
  TGI: 37 µM
[17]
  TGI: 9.79 µM
[18]
  TGI: 46.2 µM
[19]
  TGI: 12.9 µM
[20]
  TGI: > 100 µM
[21]
  TGI: 33.1 µM
[22]
  TGI: 42.7 µM
[23]
  TGI: 24.7 µM
[24]
  TGI: 3.45 µM
[25]
  TGI: 16.2 µM
[26]
  TGI: 6.99 µM
[27]
  TGI: 10.5 µM
[28]
  TGI: 35.9 µM
[29]
  TGI: 29.6 µM
[30]
  TGI: 37 µM
[31]
  TGI: 3.39 µM
[32]
  TGI: 6.71 µM
[33]
  TGI: 3.48 µM
[34]
  TGI: 33.8 µM
[35]
  TGI: 10 µM
[36]
  TGI: 5.17 µM
[37]
  TGI: 3.86 µM
[38]
  TGI: 20.2 µM
[39]
  TGI: 31 µM
[40]
  TGI: 11 µM
[41]
  TGI: 34.6 µM
[42]
  TGI: 13.1 µM
[43]
  TGI: 24.9 µM
[44]
  TGI: 32 µM
[45]
  TGI: 13.9 µM
[46]
  TGI: 31.3 µM
[47]
  TGI: 29.3 µM
[48]
  TGI: 16.6 µM
[49]
  TGI: 6.48 µM
[50]
  TGI: 10.2 µM
[51]
  TGI: 11.2 µM
[52]
  TGI: 27.2 µM
[53]
  TGI: 8.64 µM
[54]
  TGI: 15.2 µM
[55]
  TGI: 13.2 µM

## COc1cc(OC)c2c(=O)cc(-c3ccc(OC)c(OC)c3OC)oc2c1
[1]
  TGI: > 100 µM
[3]
  TGI: > 100 µM
[4]
  TGI: > 100 µM
[5]
  TGI: > 100 µM
[7]
  TGI: > 100 µM
[8]
  TGI: > 100 µM
[56]
  TGI: > 100 µM
[10]
  TGI: > 100 µM
[11]
  TGI: > 100 µM
[12]
  TGI: > 100 µM
[13]
  TGI: > 100 µM
[14]
  TGI: > 100 µM
[16]
  TGI: > 100 µM
[17]
  TGI: > 100 µM
[18]
  TGI: > 100 µM
[19]
  TGI: > 100 µM
[20]
  TGI: > 100 µM
[21]
  TGI: > 100 µM
[22]
  TGI: > 100 µM
[23]
  TGI: > 100 µM
[24]
  TGI: > 100 µM
[25]
  TGI: > 100 µM
[26]
  TGI: > 100 µM
[27]
  TGI: > 100 µM
[28]
  TGI: > 100 µM
[29]
  TGI: > 100 µM
[31]
  TGI: > 100 µM
[32]
  TGI: > 100 µM
[33]
  TGI: > 100 µM
[34]
  TGI: > 100 µM
[36]
  TGI: > 100 µM
[37]
  TGI: > 100 µM
[38]
  TGI: > 100 µM
[39]
  TGI: > 100 µM
[40]
  TGI: > 100 µM
[41]
  TGI: > 100 µM
[42]
  TGI: > 100 µM
[44]
  TGI: > 100 µM
[45]
  TGI: > 100 µM
[46]
  TGI: > 100 µM
[47]
  TGI: 45.3 µM
[50]
  TGI: > 100 µM
[51]
  TGI: > 100 µM
[53]
  TGI: > 100 µM
[54]
  TGI: > 100 µM
[57]
  TGI: > 100 µM
